The record followed here is patent US10611740B2, “Aryl dihydro-2H-benzo[b][1,4]oxazine sulfonamide and related compounds for use as agonists of RORγ and the treatment of disease” (Lycera Corporation, priority 2015, dated 2020).

The target in one assay is T1, Gal4-RORγ-LBD (Homo sapiens, UniProt P51449).
T1 construct: expressed in transfected cells; host or cells: HEK-293 cells (pcDNA3.1neo plasmid)
T1 sequence (P51449 269-508 limits assumed): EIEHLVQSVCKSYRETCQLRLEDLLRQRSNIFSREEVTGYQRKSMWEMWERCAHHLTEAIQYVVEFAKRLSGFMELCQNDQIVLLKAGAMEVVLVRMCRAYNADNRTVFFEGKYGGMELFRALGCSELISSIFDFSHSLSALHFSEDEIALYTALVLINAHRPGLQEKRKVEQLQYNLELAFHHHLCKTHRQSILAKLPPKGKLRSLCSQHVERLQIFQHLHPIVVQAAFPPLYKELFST
The experiment in a line: Gal4-RORγ Luciferase Reporter Assay in HEK-293T Cells. The following applies: HEK-293 cells, luciferase reporter, with 2 μM ursolic acid. The assay is classed as cell-based. In outline: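 In transfected HEK-293 cells (Gal4-RORγ-LBD, Gal4-luciferase), test agents with 2 μM ursolic acid were incubated overnight at 37 °C before luminescent detection. Values are relative to the ursolic-acid-free, compound-free signal (100).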
On the technique in general: In a reporter assay the amount or activity of a reporter protein is the signal.

A further assay has as its target T2, RORγ-LBD (Homo sapiens, UniProt P51449).
T2 construct: made in house; host or cells: SF9 cells (baculovirus)
T2 sequence (P51449 269-508 limits assumed): T1 sequence (P51449 269-508 limits assumed)
As to the kind of experiment: RORγ-Ligand Binding Domain (LBD) TR-FRET Assay.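 For TR-FRET Assay Max Response: 665/615 nm ratio relative to signal without ursolic acid or compound set at 100.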 It counts as biochemical. In outline:
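SF9 lysate containing His-RORγ-LBD, ~3 nM final; coactivator peptide biotin-SRC1 LXXLL, 200 nM final; ursolic acid 2 μM final; DMSO 1% final; Tris pH 7.0 buffer with KCl, EDTA, DTT, BSA. TR-FRET format.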
For orientation: Time-resolved FRET reads energy transfer from a long-lived donor to a nearby acceptor.

Molecules are shown by their SMILES.

A word on the EC50: it is the concentration needed to bring the measured effect to its halfway point. A high value points to lower potency in that assay. In the case of `O=C(NC[C@H]1CN(S(=O)(=O)c2cccc(C(F)(F)F)c2)c2cc(-c3cc(F)ccc3F)ccc2O1)c1cocn1` [Compound 30AJ, (S)-N-((6-(2,5-difluorophenyl)-4-((3-(trifluoromethyl)phenyl)-sulfonyl)-3,4-dihydro-2H-benzo[b][1,4]oxazin-2-yl)methyl)oxazole-4-carboxamide], on Gal4-RORγ-LBD, the EC50 is < 500 nM and the “Gal4-RORγ Assay Max Response” value was “** (The symbol “**” indicates a value in the range of greater than 90 to 150)”. Besides, on RORγ-LBD, the half-maximal effective concentration (EC50) was < 500 nM and the “TR-FRET Assay Max Response” value is given as “**** (The symbol “****” indicates a value greater than 200)”.

With `O=C(NC[C@H]1CN(S(=O)(=O)c2cccc(C(F)(F)F)c2)c2cc(-c3cc(F)ccc3F)ccc2O1)c1cnco1` [Compound 30AK, (S)-N-((6-(2,5-difluorophenyl)-4-((3-(trifluoromethyl)phenyl)-sulfonyl)-3,4-dihydro-2H-benzo[b][1,4]oxazin-2-yl)methyl)oxazole-5-carboxamide], on Gal4-RORγ-LBD, the concentration giving a half-maximal response (EC50) lay within 500 to 5000 nM and the “Gal4-RORγ Assay Max Response” value was “** (The symbol “**” indicates a value in the range of greater than 90 to 150)”. Further, at RORγ-LBD, the concentration giving a half-maximal response (EC50) is < 500 nM and the “TR-FRET Assay Max Response” value is “**** (The symbol “****” indicates a value greater than 200)”.

As for `NS(=O)(=O)CCC(=O)NC[C@H]1CN(S(=O)(=O)c2cccc(C(F)(F)F)c2)c2cc(-c3cc(F)ccc3F)ccc2O1` [Compound 30AL, (S)-N-((6-(2,5-difluorophenyl)-4-((3-(trifluoromethyl)phenyl)-sulfonyl)-3,4-dihydro-2H-benzo[b][1,4]oxazin-2-yl)methyl)-3-sulfamoyl-propanamide], at Gal4-RORγ-LBD, the concentration giving a half-maximal response (EC50) is < 500 nM and the “Gal4-RORγ Assay Max Response” value is “* (The symbol “*” indicates a value in the range of 25 to 90)”. Besides, on RORγ-LBD, the concentration for a half-maximal effect (EC50) is < 500 nM and the “TR-FRET Assay Max Response” value is on record as “**** (The symbol “****” indicates a value greater than 200)”.

With `O=C(NC[C@H]1CN(S(=O)(=O)c2cccc(C(F)(F)F)c2)c2cc(-c3cc(F)ccc3F)ccc2O1)[C@@H]1C[C@@H]1F` [Compound 30AM, (1S,2S)-N-(((S)-6-(2,5-difluoro-phenyl)-4-((3-(trifluoromethyl)-phenyl)sulfonyl)-3,4-dihydro-2H-benzo[b][1,4]oxazin-2-yl)methyl)-2-fluorocyclo-propane-1-carboxamide], at Gal4-RORγ-LBD, the EC50 is < 500 nM and the “Gal4-RORγ Assay Max Response” value is given as “** (The symbol “**” indicates a value in the range of greater than 90 to 150)”. Moreover, on RORγ-LBD, the half-maximal effective concentration (EC50) is < 500 nM and the “TR-FRET Assay Max Response” value was “**** (The symbol “****” indicates a value greater than 200)”.

As to `O=C(NC[C@H]1CN(S(=O)(=O)c2cccc(C(F)(F)F)c2)c2cc(-c3cc(F)ccc3F)ccc2O1)[C@H]1C[C@H]1F` [Compound 30AN, (1R,2R)-N-(((S)-6-(2,5-difluoro-phenyl)-4-((3-(trifluoromethyl)-phenyl)sulfonyl)-3,4-dihydro-2H-benzo[b][1,4]oxazin-2-yl)methyl)-2-fluorocyclo-propane-1-carboxamide], at Gal4-RORγ-LBD, the EC50 was < 500 nM and the “Gal4-RORγ Assay Max Response” value is listed as “** (The symbol “**” indicates a value in the range of greater than 90 to 150)”. Moreover, on RORγ-LBD, the EC50 was < 500 nM and the “TR-FRET Assay Max Response” value is on record as “**** (The symbol “****” indicates a value greater than 200)”.

With `CC(C)(C)C(=O)NC[C@H]1CN(S(=O)(=O)c2cccc(C(F)(F)F)c2)c2cc(-c3cc(F)ccc3F)ccc2O1` [Compound 30AO, (S)-N-((6-(2,5-difluorophenyl)-4-((3-(trifluoromethyl)phenyl)-sulfonyl)-3,4-dihydro-2H-benzo[b][1,4]oxazin-2-yl)methyl)pivalamide], on Gal4-RORγ-LBD, the EC50 is < 500 nM and the “Gal4-RORγ Assay Max Response” value was “* (The symbol “*” indicates a value in the range of 25 to 90)”. For the same compound, on RORγ-LBD, the concentration for a half-maximal effect (EC50) is < 500 nM and the “TR-FRET Assay Max Response” value was “**** (The symbol “****” indicates a value greater than 200)”.

For `N#CCC(=O)NC[C@H]1CN(S(=O)(=O)c2cccc(C(F)(F)F)c2)c2cc(-c3cc(F)ccc3F)ccc2O1` [Compound 30AP, (S)-2-cyano-N-((6-(2,5-difluoro-phenyl)-4-((3-(trifluoromethyl)-phenyl)sulfonyl)-3,4-dihydro-2H-benzo[b][1,4]oxazin-2-yl)methyl)acetamide], at Gal4-RORγ-LBD, the 50% effective concentration (EC50) was < 500 nM and the “Gal4-RORγ Assay Max Response” value is recorded as “* (The symbol “*” indicates a value in the range of 25 to 90)”. Moreover, on RORγ-LBD, the half-maximal effective concentration (EC50) was < 500 nM and the “TR-FRET Assay Max Response” value is listed as “*** (The symbol “***” indicates a value in the range of greater than 150 to 200)”.

Consider `CC(C)(C#N)C(=O)NC[C@H]1CN(S(=O)(=O)c2cccc(C(F)(F)F)c2)c2cc(-c3cc(F)ccc3F)ccc2O1` [Compound 30AQ, (S)-2-cyano-N-((6-(2,5-difluoro-phenyl)-4-((3-(trifluoromethyl)-phenyl)sulfonyl)-3,4-dihydro-2H-benzo[b][1,4]oxazin-2-yl)methyl)-2-methylpropanamide], for which, on Gal4-RORγ-LBD, the half-maximal effective concentration (EC50) was < 500 nM and the “Gal4-RORγ Assay Max Response” value is “* (The symbol “*” indicates a value in the range of 25 to 90)”. In addition, on RORγ-LBD, the EC50 was < 500 nM and the “TR-FRET Assay Max Response” value is recorded as “*** (The symbol “***” indicates a value in the range of greater than 150 to 200)”.

With `O=C(NC[C@H]1CN(S(=O)(=O)c2cccc(C(F)(F)F)c2)c2cc(-c3cc(F)ccc3F)ccc2O1)C1(F)CC1` [Compound 30AR, (S)-N-((6-(2,5-difluorophenyl)-4-((3-(trifluoromethyl)phenyl)-sulfonyl)-3,4-dihydro-2H-benzo[b][1,4]oxazin-2-yl)-methyl)-1-fluorocyclopropane-1-carboxamide], at Gal4-RORγ-LBD, the EC50 was < 500 nM and the “Gal4-RORγ Assay Max Response” value is recorded as “* (The symbol “*” indicates a value in the range of 25 to 90)”. On RORγ-LBD, the EC50 is < 500 nM and the “TR-FRET Assay Max Response” value is reported as “**** (The symbol “****” indicates a value greater than 200)”.

In the case of `CC(=O)N[C@@H](C(=O)NC[C@H]1CN(S(=O)(=O)c2cccc(C(F)(F)F)c2)c2cc(-c3cc(F)ccc3F)ccc2O1)C(C)C` [Compound 30AS], on Gal4-RORγ-LBD, the EC50 was in the range of 500 to 5000 nM and the “Gal4-RORγ Assay Max Response” value is “* (The symbol “*” indicates a value in the range of 25 to 90)”. In addition, on RORγ-LBD, the concentration for a half-maximal effect (EC50) was < 500 nM and the “TR-FRET Assay Max Response” value is on record as “*** (The symbol “***” indicates a value in the range of greater than 150 to 200)”.

As for `CC(=O)N[C@H](C)C(=O)NC[C@H]1CN(S(=O)(=O)c2cccc(C(F)(F)F)c2)c2cc(-c3cc(F)ccc3F)ccc2O1` [Compound 30AT, (R)-2-acetamido-N-(((S)-6-(2,5-difluorophenyl)-4-((3-(trifluoro-methyl)phenyl)sulfonyl)-3,4-dihydro-2H-benzo[b][1,4]-oxazin-2-yl)methyl)propanamide], on Gal4-RORγ-LBD, the EC50 lay within 500 to 5000 nM and the “Gal4-RORγ Assay Max Response” value is “** (The symbol “**” indicates a value in the range of greater than 90 to 150)”. In addition, at RORγ-LBD, the EC50 was < 500 nM and the “TR-FRET Assay Max Response” value is recorded as “*** (The symbol “***” indicates a value in the range of greater than 150 to 200)”.

`CC(C)(CO)C(=O)NC[C@H]1CN(S(=O)(=O)c2cccc(C(F)(F)F)c2)c2cc(-c3cc(F)ccc3F)ccc2O1` [Compound 30AU, (S)-N-((6-(2,5-difluorophenyl)-4-((3-(trifluoromethyl)phenyl)-sulfonyl)-3,4-dihydro-2H-benzo[b][1,4]oxazin-2-yl)methyl)-3-hydroxy-2,2-dimethylpropanamide]: at Gal4-RORγ-LBD, the concentration giving a half-maximal response (EC50) was < 500 nM and the “Gal4-RORγ Assay Max Response” value was “** (The symbol “**” indicates a value in the range of greater than 90 to 150)”. Also, on RORγ-LBD, the EC50 was < 500 nM and the “TR-FRET Assay Max Response” value is “**** (The symbol “****” indicates a value greater than 200)”.

As to `CC1(C(=O)NC[C@H]2CN(S(=O)(=O)c3cccc(C(F)(F)F)c3)c3cc(-c4cc(F)ccc4F)ccc3O2)CC1` [Compound 30AV, (S)-N-((6-(2,5-difluorophenyl)-4-((3-(trifluoromethyl)phenyl)-sulfonyl)-3,4-dihydro-2H-benzo[b][1,4]oxazin-2-yl)methyl)-1-methylcyclo-propane-1-carboxamide], at Gal4-RORγ-LBD, the EC50 was < 500 nM and the “Gal4-RORγ Assay Max Response” value was “* (The symbol “*” indicates a value in the range of 25 to 90)”. At RORγ-LBD, the EC50 is < 500 nM and the “TR-FRET Assay Max Response” value was “*** (The symbol “***” indicates a value in the range of greater than 150 to 200)”.

Regarding `C=CCC(=O)NC[C@H]1CN(S(=O)(=O)c2cccc(C(F)(F)F)c2)c2cc(-c3cc(F)ccc3F)ccc2O1` [Compound 30AW, (S)-N-((6-(2,5-difluorophenyl)-4-((3-(trifluoromethyl)phenyl)-sulfonyl)-3,4-dihydro-2H-benzo[b][1,4]oxazin-2-yl)methyl)but-3-enamide], at Gal4-RORγ-LBD, the EC50 is < 500 nM and the “Gal4-RORγ Assay Max Response” value is “** (The symbol “**” indicates a value in the range of greater than 90 to 150)”. Besides, at RORγ-LBD, the EC50 is < 500 nM and the “TR-FRET Assay Max Response” value was “*** (The symbol “***” indicates a value in the range of greater than 150 to 200)”.
